In patent publication US20220054640A1, “COMPOSITIONS AND METHODS FOR THE DELIVERY OF THERAPEUTIC AGENTS ACROSS THE ROUND WINDOW MEMBRANE” (Decibel Therapeutics, Inc., priority 2018, published 2022):
Where two headings read alike, the source gives them in different places. One block for each compound: values may come before it. Ends that are not written are not given here. Peptide text beside a SMILES is read from it.

Key:
[1] = system: tight and adherens junctions; experiment: immunohistochemical staining of tight and adherens junctions after the in vitro permeability assay; format: cell-based; conditions: 3.5 hours of incubation at 37° C., NT-3 in vehicle or with 1% peptide
Experimental: (§1) To further characterize the effects of peptide (XVI), the in vitro permeability assay was used to evaluate administration of NT-3 in either vehicle or 1% of peptide (XVI), as depicted in FIG. 18. In this experiment, cultures were incubated at 37° C. and 50 μL samples were collected at various time points. After 3.5 hours of incubation, the top and bottom media were collected separately and the insert was fixed for immunohistochemical staining to evaluate tight and adherens junctions.

[2] = background statement, test not described; cited from earlier work
[3] = background statement; cited from earlier work
[4] = system: guinea pig RWM; experiment: RWM integrity after in vivo application; conditions: 21 days post trans-tympanic injection, 0.1% peptide HCl salt
Experimental: To assess the capacity for the RWM to recover after application of the […] peptide we record ABR thresholds with and without application of a 50 μL formulation including 0.1% […].HCL to the guinea pig RWM via trans-tympanic injection. […] Post-injection (21 days), the guinea pigs in both the […] exposed and control groups were sacrificed, and the temporal bone was removed as described in Example 5, section (a).

[5] = ABR/hearing testing; format: in vivo, guinea pig
Experimental: Prior to ABR recording, the tympanic membrane was inspected for otitis media using a surgical microscope. Animals with otitis media were excluded from the analysis. A TDT RZ6 system was used to record the auditory brainstem response (ABR). Animals were anaesthetized with zoletil (20 mg/kg, I.M.) and placed in a soundproof chamber. Three stainless needle recording electrodes were inserted just under the skin and connected to the appropriate input on the PA4LI low impedance headstage: Channel 1: Ipsilateral ear (same side as stimulus delivery); Reference: contralateral ear; Ground: Vertex (base of skull). A computer-controlled TDT RZ6 System was used to generate the auditory pure tone and power amplified before fed to a closed-field speaker to deliver sound stimuli. The same pure tone stimuli were repeated 512 times, the sound pressure levels were increased in a step of 10 dB SPL (5 dB around threshold) from 20 dB SPL to 90 dB SPL after every 512 repeated trials. The lowest sound level which induced a brainstem response was regarded as the threshold. The hearing thresholds were measured at 4, 24, and 32 kHz. ABR recording was performed before surgery or dosing and on the 7th and 14th day after the formulation dosing. The ABR was recorded first from the left ear and then from the right ear.

[6] = cochlear perilymph exposure upon intratympanic administration; conditions: NT-3 formulation with permeation enhancer (peptide 1%)
[7] = system: round window membrane; experiment: in vitro permeability assay (apparent permeability, flux); format: in vitro ADME; conditions: NT-3 incubated with 1% peptide; for NT-3 apparent permeability (Papp) compared to control: FIG. 22
Experimental: To this end, an in vitro permeability assay was designed to test the apparent permeability of NT-3 against that of other compounds, the experimental design of which is shown in FIG. 1. After the initial formation of tight junctions, which was evaluated using transepithelial electrical resistance (TEER), 100 μL artificial perilymph (AP+) with API was added to the insert, and 500 μL AP+ was added to the bath. Cultures were incubated at 37° C. and 20 μL samples were collected at various time points.
as §1

[8] = guinea pig, not told
[9] = system: guinea pig RWM; experiment: tight junction integrity of excised RWM in ex vivo culture; format: cell-based; conditions: 1% peptide TFA salt in DMEM, 1 hour
Description: The […] peptide is hypothesized to interfere with cellular tight junctions. To assess if this mechanism is relevant to the RWM, we excise the RWM from adult guinea pigs (Elm Hill Labs, Chelmsford, Mass.) and stain for a variety of adherens and tight junction proteins. To extract the guinea pig RWM, the temporal bone was removed from freshly sacrificed guinea pig tissue and placed in PBS. An incision was then made in the roof of the bulla to expose the cochlea, followed by trimming of the temporal bone, bulla, and middle ear bones to expose the RWM. The round window niche was then removed from the cochlea and then cultured in DMEM with and without 1% […].TFA for 1 hour. This tissue was then fixed in a 4% PFA solution for 30 minutes followed by wash with PBS (3 times, 5-minute incubations). […]

[10] = listed as the peptide represented by formula (XVI)

Compound: neurotrophin-3 [NT-3]
- cell junction appearance (immunohistochemical staining) [1]: adherens junctions appeared normal
- EC50 [2]: less than 20 ng/ml
- pI [3]: 9.5

- tight junction proteins (actin, ZO-1, alpha-catenin) in RWM [4]: intact
- ABR hearing test, change relative to Day 0 ([5]; 1 μL of 1% (w/v) peptide HCl salt in Poloxamer 407 (20% w/v), His buffer (pH6), Day 14): no change relative to Day 0
- ABR threshold shift ([5]; 50 μL formulation including 0.1% peptide HCl salt, trans-tympanic, 7 and 14 days): no noticeable threshold shift
Compound: CC(C)C[C@H](NC(=O)[C@H](C)NC(=O)[C@H](CC(C)C)NC(=O)[C@H](CCCCN)NC(=O)[C@H](CC(C)C)NC(=O)[C@H](C)NC(=O)[C@H](CC(C)C)NC(=O)[C@@H](N)CCCCN)C(=O)N[C@@H](CCCCN)C(=O)N[C@@H](C)C(=O)N[C@@H](CC(C)C)C(=O)N[C@@H](CCCCN)C(=O)N[C@@H](CC(C)C)C(=O)N[C@@H](C)C(=O)N[C@@H](C)C(=O)N[C@@H](CC(C)C)C(=O)N[C@@H](CCCCN)C(=O)N[C@@H](CC(C)C)C(=O)N[C@@H](C)C(=O)O (H-KLALKLALKALKLAALKLA-OH; N-terminus and C-terminus assumed)

Compound: CC1(C)[C@@H](O[C@H]2O[C@H](C(=O)[O-])[C@@H](O)[C@H](O)[C@H]2O[C@@H]2O[C@H](C(=O)[O-])[C@@H](O)[C@H](O)[C@H]2O)CC[C@]2(C)[C@H]3C(=O)C=C4[C@@H]5C[C@@](C)(C(=O)O)CC[C@]5(C)CC[C@@]4(C)[C@]3(C)CC[C@@H]12.[K+].[K+] [dipotassium glycyrrhizinate]
- effect of permeation enhancer on cochlear NT-3 exposure / NT-3 delivery across the round window membrane [6]: incapable of substantially improving NT-3 delivery across the round window membrane

- NT-3 flux compared to control ([7]; FIG. 21): greater flux
- NT-3 apparent permeability (Papp) compared to control [7]: greater
- NT-3 apparent permeability (Papp) compared to control [7, 10]: increased NT-3 permeability
Compound: CC(=O)NC(CCCCN)C(=O)NC(CC(C)C)C(=O)NC(C)C(=O)NC(CC(C)C)C(=O)NC(CCCCN)C(=O)NC(CC(C)C)C(=O)NC(C)C(=O)NC(CC(C)C)C(=O)NC(CCCCN)C(=O)NC(C)C(=O)NC(CC(C)C)C(=O)NC(CCCCN)C(=O)NC(CC(C)C)C(=O)NC(C)C(=O)NC(C)C(=O)NC(CC(C)C)C(=O)NC(CCCCN)C(=O)NC(CC(C)C)C(=O)NC(C)C(N)=O (centres unmarked) [peptide (XVI)] (Ac-KLALKLALKALKLAALKLA-NH2; configuration not given here)
- cell junction appearance (immunohistochemical staining) [1]: gaps could be observed between cells
- cell junction appearance (immunohistochemical staining) [1, 10]: gaps were observed between cells

Compound: OCc1ccccc1 [benzyl alcohol, reference compound]
- effect of permeation enhancer on cochlear NT-3 exposure / NT-3 delivery across the round window membrane [8]: incapable of substantially improving NT-3 delivery across the round window membrane

Compound: KLALKLALKALKLAALKLA.TFA (also: TFA salt)
- junction protein structure in RWM [9]: disrupts occludin, ZO-1, and alpha-catenin, but not actin (as imaged via phalloidin), or beta-catenin structure
